According to US20130337564A1, “Treatment of Pluripotent Cells” (Janssen Biotech, Inc., priority 2012, published 2013):
“And” between values parts separate entries of the source, which are not always exact repeats. Identical values can stand only once.

Columns and labels:
[1] = system: human embryonic stem cells (H9 line); assay: High content screening assay: cell number (proliferative response); type: cell-based
Method in brief: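 H9 hESCs on MATRIGEL treated days 1-2 with 10 μM compound in DMEM:F12, 0.5% FCS, 100 ng/ml activin A; days 3-4 with 2% FCS plus activin A without compound. Fixed cells immunostained for Sox17 or HNF-3beta with Draq5 nuclear counterstain. Cell number and staining intensity quantified by high-content imaging, 12 fields/well.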

[2] = system: human embryonic stem cells (H9 or H1 lines); assay: Plate reader (MTS) proliferation assay; type: cell-based; conditions: for % Control Value (proliferation) / activity at 10 µM: 10 μM test compound with 100 ng/ml activin A on days 1-2, MTS OD490 on day 4, vs Activin A/Wnt3a positive control, strong and moderate hits; for Average: average of replicate raw data; for Raw Data: replicate wells, plate reader proliferation screen of GSK-3B inhibitors; for activity at 10 µM: Homo sapiens, Embryonic stem cell, 96 h
Method: Maintenance of human embryonic stem cells (H9 or H1 lines) was conducted as described in Example 1. Colonies of cells were maintained in an undifferentiated, pluripotent state with passage on average every four days. Passage was performed by exposing cell cultures to a solution of collagenase (1 mg/ml; Sigma-Aldrich) for 10 to 30 minutes at 37° C. followed by gentle scraping with a pipette tip to recover cell clusters. Clusters were allowed to sediment and washed to remove residual collagenase. Cell clusters were split at a ratio of 1:3 monolayer area for routine culture or a 1:1 ratio for immediate assay. The human embryonis stem cell lines used for these examples were maintained at passage numbers less than 50 and routinely evaluated for normal karyotypic phenotype as well as absence of mycoplasm contamination.
Cell clusters used in assay were evenly resuspended in normal culture medium and plated into MATRIGEL-coated 96-well Packard VIEWPLATES (PerkinElmer) in volumes of 100 μl/well. MEF conditioned medium supplemented with 8 ng/ml bFGF) was used for initial plating and recovery. Daily feeding was conducted by aspirating spent culture medium from each well and replacing with an equal volume of fresh medium. Plates were maintained at 37° C. in a humidified box, 5% CO2 throughout the duration of assay.
Primary screening assays were initiated by aspirating culture medium from each well followed by three washes in PBS to remove residual growth factors and serum. Test volumes of 80-100 μl per well were added back containing DMEM:F12 base medium (Invitrogen) supplemented with 0.5% FCS (HyClone) and 100 ng/ml activin A (R&D Biosystems) and 10 μM test compound. Positive control wells contained the same medium substituting 10-20 ng/ml Wnt3a (R&D Biosystems). Negative control wells contained base medium with 0.5% FCS without activin A or Wnt3a. Screening compounds were tested in triplicate. Wells were aspirated and fed again with identical solutions on day 2 of the assay. On days 3 and 4, all assay wells were aspirated and converted to DMEM:F 12 supplemented with 2% FCS and 100 ng/ml activin A with the exception of negative control wells which were maintained in DMEM:F12 base medium with 2% FCS.
On day 4 of assay, 15-20 μl of MTS (Promega) was added to each well and plates were incubated at 37° C. for 1.5 to 4 hours. Densitometric readings at OD490 were determined using a Molecular Devices spectrophotometer plate reader. Average readings for replicate sets were calculated along with standard deviation and coefficient of variation. Experimental wells were compared to the Activin A/Wnt3a positive control to calculate a percent control value as a measure of proliferation.
Strong hits are defined as greater than or equal to 120% of control values; moderate hits are defined as falling within the interval of 60-120% of control values. A significant number of compounds induce a proliferative response in this assay.

## O=C1NC(=O)C(c2cn(CCCO)c3ncccc23)=C1c1cnccn1 [Compound 47, 3-[1-(3-Hydroxypropyl)-1H-pyrrolo[2,3-b]pyridin-3-yl]-4-pyrazin-2-yl-1H-pyrrole-2,5-dione]
[1]; Homo sapiens, Embryonic stem cell, 10 μM test compound with 100 ng/ml activin A on days 1-2, H9, total cell number by IN Cell Analyzer, strong and moderate hits, read-out: Proliferative Response, Fold over Wnt 3a/AA control
  fold induction at 10 µM: 1.37
[1]; cell number in the wells analysed for HNF-3b expression
  Proliferative Response Total cells: 6908
[1]; cell number in the wells analysed for SOX-17 expression
  Proliferative Response Total cells: 10447

## CCN1CCOCCOCCn2cc(c3ccccc32)C2=C(C(=O)NC2=O)c2cn(c3ccccc23)CC1 [Compound 103, 14-Ethyl-6,7,9,10,13,14,15,16-octahydro-12H,23H-5,26:17,22-di(metheno)dibenzo[k,q]pyrrolo[3,4-n][1,4,7,10,19]dioxatriacyclohenicosine-23,25(24H)-dione]
[2]
  % Control Value (proliferation): 68.7%
  Average: 0.5236
  Raw Data: 0.7125 and 0.3347

## CN1CCOCCOCCN(C)CCn2cc(c3ccccc32)C2=C(C(=O)NC2=O)c2cn(c3ccccc23)CC1 [Compound 112, 12,21-Dimethyl-11,12,13,14,16,17,20,21,22,23-decahydro-1H,10H,19H-9,4:24,29-di(metheno)dibenzo[k,q]pyrrolo[3,4-n][1,4,7,10,19,22]dioxatetraazacyclotetracosine-1,3(2H)-dione]
[2]
  % Control Value (proliferation): 132.8%
  Average: 0.9024
  Raw Data: 1.0444 and 0.7603

## O=C1NC(=O)C2=C1c1cn(c3ccccc13)CCOCCOCCN(Cc1cccc3ccccc13)CCn1cc2c2ccccc21 [Compound 136, 14-(Naphthalen-1-ylmethyl)-6,7,9,10,13,14,15,16-octahydro-12H,23H-5,26:17,22-di(metheno)dibenzo[k,q]pyrrolo[3,4-n][1,4,7,10,19]dioxatriazacyclohenicosine-23,25(24H)-dione]
[2]
  % Control Value (proliferation): 128.8% and 125.7%
  Average: 0.9509 and 0.9309
  Raw Data: 0.8618 and 1.0400 and 0.8430 and 1.0187

## O=C1NC(=O)C(c2nn(CCCO)c3ccccc23)=C1c1cn(-c2cccnc2)c2ccc(Cl)cc12 [Compound 52, 3-(5-Chloro-1-pyridin-3-yl-1H-indol-3-yl)-4-[1-(3-hydroxypropyl)-1H-indazol-3-yl]-1H-pyrrole-2,5-dione]
[2]
  activity at 10 µM: 136%
  Average: 1.0617

## O=C1NC(=O)C2=C1c1cn(c3ccccc13)CCOCCOCCN(Cc1cccs1)CCn1cc2c2ccccc21 [Compound 133, 14-(2-Thienylmethyl)-6,7,9,10,13,14,15,16-octahydro-12H,23H-5,26:17,22-di(metheno)dibenzo[k,q]pyrrolo[3,4-n][1,4,7,10,19]dioxatriazacyclohenicosine-23,25(24H)-dione]
[2]
  % Control Value (proliferation): 149.3%
  Average: 1.0839
  Raw Data: 1.0786 and 1.0891

## CN1CCN(C)CCn2cc(c3ccccc32)C2=C(C(=O)NC2=O)c2cn(c3ccccc23)CC1 [Compound 111, 8,11-Dimethyl-6,7,8,9,10,11,12,13-octahydro-20H-5,23:14,19-di(metheno)dibenzo[k,q]pyrrolo[3,4-n][1,4,7,10]tetraazacyclooctadecine-20,22(21H)-dione]
[2]
  % Control Value (proliferation): 128.7%
  Average: 0.8784
  Raw Data: 1.0689 and 0.6879

## CN(C)CCCn1c2c(c3ccccc31)C1=C(C(=O)NC1=O)N(c1cccc(Cl)c1)C2 [Compound 101, 4-(3-Chlorophenyl)-6-[3-(dimethylamino)propyl]-5,6-dihydropyrrolo[3′,4′:5,6]pyrido[3,4-b]indole-1,3(2H,4H)-dione]
[2]
  activity at 10 µM: 155%
  Average: 1.0316

## O=C1NC(=O)C(c2cn(CCCO)c3ncccc23)=C1c1ccccc1C(F)(F)F [Compound 16, 3-[1-(3-Hydroxypropyl)-1H-pyrrolo[2,3-b]pyridin-3-yl]-4-[2-(trifluoromethyl)phenyl]-1H-pyrrole-2,5-dione]
[2]
  activity at 10 µM: 85.5%
[2]; plate reader raw signal, mean of replicate wells, proliferation of human embryonic stem cells
  Average (of Raw Data): 0.8575
